Data on 19 molecules can be found in patent US6982260B1, “Quinazolines and their use for inhibiting cyclin-dependent kinase enzymes” (Warner-Lambert Company, priority 1999, dated 2006).

Series [1] concerns the target cdk4/D (Homo sapiens, UniProt P11802). The series can be described thus: Cyclin-Dependent Kinase 4 (cdk4) Assay. The series is classed as biochemical. The method, then: As noted above, the compounds of this invention are potent inhibitors of cyclin-dependent kinases, and accordingly, are useful in treating and preventing neurodegenerative disorders, atherosclerosis, and other cell proliferative disorders like cancer. […] A typical assay, for instance, measures inhibitory activity against the cyclin D dependent kinase 4 enzyme (cdk4/D). […] The cdk4 assay was carried out as follows.
Cyclin-Dependent Kinase 4 (cdk4) Assay
Enzyme assays for IC50 determinations (Table 1 above) and kinetic evaluation were performed in 96 well filter plates (Millipore MADVN6550). The total volume was 0.1 mL containing a final concentration of 20 mM TRIS (tris[hydroxymethyl]aminomethane), at pH 7.4, 50 mM NaCl, 1 mM dithiothreitol, 10 mM MgCl2, 25 μM ATP containing 0.25 μCi of [^32P]ATP, 20 ng of cdk4, 1 μg of retinoblastoma, and appropriate dilutions of a compound of the present invention. All components except the ATP were added to the wells, and the plate was placed on a plate mixer for 2 minutes. The reaction was started by adding [^32P]ATP and the plate was incubated at 25° C. for 15 minutes. The reaction was terminated by addition of 0.1 mL of 20% trichloroacetic acid (TCA). The plate was kept at 4° C. for at least 1 hour to allow the substrate to precipitate. The wells were then washed five times with 0.2 mL of 10% TCA and ^32P incorporation was determined with a beta plate counter (Wallac Inc., Gaithersburg, Md.).

For series [2], the target named is cdk2/A (Homo sapiens, UniProt P24941). Briefly: cdk2/A kinase assay. Format: biochemical. The conditions noted are these: 32P incorporation into retinoblastoma, 25° C., 15 minutes; read-out: Cdk2A IC50. The method, then: (§1) All components except the ATP were added to the wells, and the plate was placed on a plate mixer for 2 minutes. The reaction was begun by addition of [^32P]ATP, and the plate was incubated at 25° C. for 15 minutes. The reaction was terminated by addition of 0.1 mL of 20% TCA. The plate was kept at 4° C. for at least 1 hour to allow the substrate to precipitate. The wells were then washed five times with 0.2 mL of 10% TCA and ^32P incorporation determined with a beta plate counter (Wallac Inc., Gaithersburg, Md.).

Series [3] addresses cdc2/cyclinB (Homo sapiens, UniProt P06493). Briefly: cdc2/cyclinB kinase assay (Table 1, CdkB). The conditions noted are these: 32P incorporation into retinoblastoma, 25° C., 15 minutes. Format: biochemical. The method, then: as §1
Series [4] addresses cdk2/cyclinE (Homo sapiens, UniProt P24941). Briefly: cdk2/cyclinE kinase assay. The series is classed as biochemical. The conditions noted are these: 32P incorporation into retinoblastoma, 25° C., 15 minutes; read-out: Cdk2E IC50. As to the method:
as §1

Series [5] relates to neointima formation. The conditions noted are these: intraluminal exposure of a denuded rat carotid artery; cited from earlier work.
Series [6] relates to herpes simplex virus (HSV). The conditions noted are these: cited from earlier work.
[7] abbreviates: 25 μM ATP, retinoblastoma substrate, 25° C., 15 minutes, read-out: Cdk4 IC50.

Where two headings read alike, the source gives them in different places.

cdk4/D, sequence (P11802 whole entry, species assumed): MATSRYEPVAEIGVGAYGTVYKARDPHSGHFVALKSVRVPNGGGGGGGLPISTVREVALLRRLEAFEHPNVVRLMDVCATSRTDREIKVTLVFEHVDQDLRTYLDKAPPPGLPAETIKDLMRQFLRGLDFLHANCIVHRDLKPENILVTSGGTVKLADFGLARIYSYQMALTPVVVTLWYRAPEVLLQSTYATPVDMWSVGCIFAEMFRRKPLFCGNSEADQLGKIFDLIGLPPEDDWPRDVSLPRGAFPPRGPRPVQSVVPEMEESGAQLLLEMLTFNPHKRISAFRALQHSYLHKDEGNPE
cdk4/D, sequence (P24385 whole entry partner, species assumed): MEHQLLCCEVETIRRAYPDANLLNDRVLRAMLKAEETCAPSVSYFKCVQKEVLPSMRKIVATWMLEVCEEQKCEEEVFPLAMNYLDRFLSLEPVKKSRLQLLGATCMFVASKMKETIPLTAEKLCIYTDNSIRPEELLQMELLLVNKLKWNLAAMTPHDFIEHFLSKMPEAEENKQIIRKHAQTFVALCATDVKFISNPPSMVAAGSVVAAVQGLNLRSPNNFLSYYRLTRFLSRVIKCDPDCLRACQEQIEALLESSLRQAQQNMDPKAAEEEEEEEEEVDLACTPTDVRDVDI
cdc2/cyclinB, sequence (P06493 whole entry, species assumed): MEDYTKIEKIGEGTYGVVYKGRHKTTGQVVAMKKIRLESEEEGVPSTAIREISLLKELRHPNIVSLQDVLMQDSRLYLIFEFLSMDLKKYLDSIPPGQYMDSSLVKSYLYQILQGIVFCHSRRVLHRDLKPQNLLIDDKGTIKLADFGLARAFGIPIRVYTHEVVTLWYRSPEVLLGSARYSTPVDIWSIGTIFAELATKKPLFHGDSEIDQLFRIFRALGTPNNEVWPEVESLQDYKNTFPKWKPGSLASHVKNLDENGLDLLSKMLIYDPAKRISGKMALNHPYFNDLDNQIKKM
cdc2/cyclinB, sequence (P14635 whole entry partner, species assumed): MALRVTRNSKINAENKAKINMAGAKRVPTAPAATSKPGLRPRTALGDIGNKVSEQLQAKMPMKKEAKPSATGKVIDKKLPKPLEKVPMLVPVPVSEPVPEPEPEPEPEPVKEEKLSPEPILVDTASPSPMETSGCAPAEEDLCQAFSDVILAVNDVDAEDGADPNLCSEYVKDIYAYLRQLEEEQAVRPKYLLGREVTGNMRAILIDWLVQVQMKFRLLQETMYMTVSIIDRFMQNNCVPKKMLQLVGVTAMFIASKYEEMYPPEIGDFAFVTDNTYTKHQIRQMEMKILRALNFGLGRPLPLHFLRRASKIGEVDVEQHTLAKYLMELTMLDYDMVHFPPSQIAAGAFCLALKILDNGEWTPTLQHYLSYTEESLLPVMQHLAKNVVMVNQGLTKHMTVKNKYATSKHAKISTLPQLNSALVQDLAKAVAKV

Turning to `COc1ccc2cnc(Nc3ccc(N4CCN(C(=O)OC(C)(C)C)CC4)cc3)nc2c1C1CCCC1` [Example 26, 4-[4-(8-Cyclopentyl-7-methoxy-quinazolin-2-ylamino)-phenyl]-piperazine-1-carboxylic Acid Tert-butyl Ester], the melting point (as a rule, the temperature of the solid-liquid transition) lay within 183 to 184 °C. Also, the IC50 (usually the concentration that inhibits the measured activity by half) in series [1] (setting [7]) is 51 nM. Besides, the 50% inhibitory concentration (IC50) in series [2] is 646 nM. Moreover, half-maximal inhibition in series [3] (IC50) was put at 4200 nM.
`CC(C)c1c(O)ccc2cnc(Nc3ccccc3)nc12` [Example 29, 8-Isopropyl-2-phenylamino-quinazolin-7-ol] registered a melting point of 103 to 104 °C. In series [1], this molecule gave a half-inhibitory concentration (IC50) of 325 nM. In addition, the half-inhibitory concentration (IC50) in series [2] stood at 250 nM. Moreover, the IC50 in series [4] was determined as 550 nM. The molecule also registered a 50% inhibitory concentration (IC50) in series [3] of 813 nM.
Turning to `COc1ccc2cnc(Nc3ccc(N4CCN(C(=O)CN)CC4)cc3)nc2c1C(C)C` [Example 35, 2-Amino-1-{4-[4-(8-Isopropyl-7-methoxy-quinazolin-2-ylamino)-phenyl]-piperazin-1-yl}-ethanone], the melting point was 183 to 185 °C. Besides, the midpoint of inhibition in series [1], the IC50, lay at 10 nM. In addition, in series [2], the IC50 stood at 191 nM. In series [4], the IC50 amounted to 1100 nM. In series [3], this molecule had an IC50 of 800 nM.
As for `COc1ccc(CNc2nc(N(CCO)CCO)nc3c2ncn3C(C)C)cc1` [CVT-313], the “inhibition of neointima formation” value in series [5] is “greater than 80%”.
`COc1ccc2cnc(Nc3ccc(N4CCN(C(C)=O)CC4)cc3)nc2c1C1CCCC1` [Example 20, 1-{4-[4-(8-Cyclopentyl-7-methoxy-quinazolin-2-ylamino)-phenyl]-piperazin-1-yl}-ethanone]: the melting point was in the range of 247 to 249 °C. In series [1], the IC50 came to 2 nM. The IC50 in series [2] came to 50 nM. Further, the IC50 in series [4] was determined as 265 nM. For the same molecule, in series [3], the IC50 was greater than 5000 nM.
`COc1ccc2cnc(Nc3ccc(F)c(C)c3)nc2c1C(C)C` [Example 46, (4-Fluoro-3-methyl-phenyl)-(8-isopropyl-7-methoxy-quinazolin-2-yl)-amine] yielded a melting point of 169 to 171 °C. Further, the IC50 in series [1] (setting [7]) came to 1500 nM. In addition, the IC50 in series [2] was 246 nM. Further, in series [4], the 50% inhibitory concentration (IC50) worked out at 1200 nM. In series [3], this molecule came in with an IC50 of 1200 nM.
Take `CC[C@H](CO)Nc1nc(NCc2ccccc2)c2ncn(C(C)C)c2n1` [roscovitine]: the HSV replication result in series [6] was “inhibited”.
For the molecule `COc1ccc2cnc(Nc3ccc(F)c(C)c3)nc2c1C1CCCC1` [Example 48, (8-Cyclopentyl-7-methoxy-quinazolin-2-yl)-(4-fluoro-3-methyl-phenyl)-amine], the melting point was in the range of 208 to 209 °C. In addition, the IC50 in series [1] (setting [7]) worked out at 2400 nM. Moreover, in series [2], the IC50 turned out to be 574 nM. Besides, the IC50 in series [4] worked out at 2200 nM. This molecule also showed an IC50 in series [3] of 1170 nM.
`COc1ccc2cnc(Nc3ccc(N4CCC(N)C4)cc3)nc2c1C1CCCC1` (centres unmarked) [Example 41, [4-(3-Amino-pyrrolidin-1-yl)-phenyl]-(8-cyclopentyl-7-methoxy-quinazolin-2-yl)-amine] came in with a melting point of 220 to 221 °C. The molecule further returned an IC50 in series [1] of 116 nM. The IC50 in series [2] worked out at 203 nM. Moreover, in series [4], the half-maximal inhibitory concentration (IC50) came to 950 nM. The molecule also registered an IC50 in series [3] of 398 nM.
On to `COc1ccc2cnc(Nc3ccc(N4CCOCC4)cc3)nc2c1C1CCCC1` [Example 44, (8-Cyclopentyl-7-methoxy-quinazolin-2-yl)-(4-morpholin-4-yl-phenyl)-amine], for which the melting point lay in the range of 243 to 244 °C. Also, in series [1], it took 18 nM to reach half-maximal inhibition (IC50). Also, in series [2], the concentration for half-maximal inhibition (IC50) was 383 nM. Moreover, in series [4], the IC50 was determined as 650 nM. This molecule showed an IC50 in series [3] of 1590 nM.
Consider `COc1ccc2cnc(Nc3ccc(N4CCC(NC(=O)OC(C)(C)C)C4)cc3)nc2c1C1CCCC1` (centres unmarked) [Example 45, {1-[4-(8-Cyclopentyl-7-methoxy-quinazolin-2-ylamino)-phenyl]-pyrrolidin-3-yl}-carbamic Acid Tert-butyl Ester], for which the melting point is 157 °C (dec.). In addition, the concentration for half-maximal inhibition (IC50) in series [1] (setting [7]) is 275 nM. In addition, the IC50 in series [2] is 2390 nM. In series [4], the 50% inhibitory concentration (IC50) is 6900 nM. This molecule gave a concentration for half-maximal inhibition (IC50) in series [3] greater than 1700 nM.
As for `COc1ccc2cnc(Nc3ccc(N4CCCC4)cc3)nc2c1C(C)C` [Example 22, (8-Isopropyl-7-methoxy-quinazolin-2-yl)-(4-pyrrolidin-1-yl-phenyl)-amine], the melting point was in the range of 188 to 190 °C. The same molecule gave a half-inhibitory concentration (IC50) in series [1] of 560 nM. Moreover, the IC50 in series [2] came to 1600 nM. Besides, the IC50 in series [4] was greater than 5000 nM. The molecule also gave an IC50 in series [3] greater than 5000 nM.
`COc1ccc2cnc(Nc3ccc(N4CCOCC4)c(F)c3)nc2c1C1CCCC1` [Example 43, (8-Cyclopentyl-7-methoxy-quinazolin-2-yl)-(3-fluoro-4-morpholin-4-yl-phenyl)-amine] returned a melting point of 252 to 253 °C. Moreover, the IC50 in series [1] (setting [7]) turned out to be 70 nM. In addition, the IC50 in series [2] was 966 nM. Moreover, the IC50 in series [4] was greater than 5000 nM. The same molecule showed an IC50 in series [3] greater than 5000 nM.
`COc1ccc2cnc(Nc3ccc(N4CCCCC4)cc3)nc2c1C1CCCC1` [Example 23, (8-Cyclopentyl-7-methoxy-quinazolin-2-yl)-(4-piperidin-1-yl-phenyl)-amine] showed a melting point of 212 to 214 °C. Also, the IC50 in series [1] came out at 11 nM. Besides, the half-inhibitory concentration (IC50) in series [2] was 384 nM. Moreover, the IC50 in series [4] is greater than 5000 nM. The molecule also returned an IC50 in series [3] greater than 5000 nM.
With `COc1ccc2cnc(Nc3ccc(N4CCCCC4)cc3)nc2c1C(C)C` [Example 21, (8-Isopropyl-7-methoxy-quinazolin-2-yl)-(4-piperidin-1-yl-phenyl)-amine], the melting point was in the range of 166 to 167 °C. The same molecule came in with an IC50 in series [1] of 52 nM. The concentration for half-maximal inhibition (IC50) in series [2] worked out at 410 nM. For the same molecule, in series [4], the half-inhibitory concentration (IC50) is 3100 nM. In series [3], this molecule had an IC50 greater than 5000 nM.
The like results for `COc1ccc2cnc(Nc3ccccc3)nc2c1C(C)C` [Example 19, (8-Isopropyl-7-methoxy-quinazolin-2-yl)-phenyl-amine] were, in that order, 172 to 173 °C, 125 nM, 253 nM, 1080 nM and 1040 nM.
Molecule `COc1ccc2cnc(Nc3ccc(N4CCN(C(=O)CN)CC4)cc3)nc2c1C1CCCC1` [Example 40, 2-Amino-1-{4-[4-(8-cyclopentyl-7-methoxy-quinazolin-2-ylamino)-phenyl]-piperazin-1-yl}-ethanone] returned a melting point of 202 °C. Also, the IC50 in series [1] was 2 nM. Further, in series [2], the IC50 amounted to 95 nM. Also, the half-inhibitory concentration (IC50) in series [4] was 450 nM. Besides, in series [3], the midpoint of inhibition, the IC50, lay at 270 nM.
`COc1ccc2cnc(Nc3ccc(N4CCN(C(=O)OC(C)(C)C)CC4)cc3)nc2c1C(C)C` [Example 25, 4-[4-(8-Isopropyl-7-methoxy-quinazolin-2-ylamino)-phenyl]-piperazine-1-carboxylic Acid Tert-butyl Ester] showed a melting point of 173 to 175 °C. In series [1] (setting [7]), the IC50 came to 63 nM. The IC50 in series [2] was 1620 nM. Moreover, the IC50 in series [4] was determined as 10000 nM. In series [3], the 50% inhibitory concentration (IC50) stood at 10200 nM.
As to `COc1ccc2cnc(Nc3ccc(N4CCNCC4)c(F)c3)nc2c1C1CCCC1` [Example 50, (8-Cyclopentyl-7-methoxy-quinazolin-2-yl)-(3-fluoro-4-piperazin-1-yl-phenyl)-amine], the melting point was 228 to 229 °C. The molecule also returned an IC50 in series [1] of 4 nM. In series [2], the half-maximal inhibitory concentration (IC50) amounted to 62 nM. Further, the IC50 in series [4] was determined as 300 nM. Besides, the IC50 in series [3] turned out to be 214 nM.
